According to US7553866B2, “Thiolactones” (Eisai Corporation of North America, priority 2003, dated 2009):
“Also recorded” adds a separate entry of the source. Marks after values point to notes of the source that are not given here. Peptide text beside a SMILES is read from it.

Columns and labels:
[1] = tested on: C57/BL mice; assay: animal or person; type: in vivo; conditions: for ED50: Mus musculus, sc
Experimental: (§1) Male C57/BL mice (IMP, Lodz, Poland), 22-24 g of body weight were group-housed in the standard laboratory cages and kept in a temperature-controlled colony room (21±2° C.) with a 12-hour light/dark cycle (light on: 07:00, off: 19:00). Commercial food and tap water were available ad libitum. Each experimental group consisted of 7-28 mice per treatment. All mice were used only once.
(§2) The intensity of the heat stimulus was adjusted so that the baseline tail-flick latency was ˜3 seconds. […] Each response assessment consisted of two separate measurements taken at different portions of the tail (spaced by 1.5-2 cm) and separated by 15 seconds. The mean of these responses was used for subsequent comparisons.

[2] = tested on: C57/BL mice; assay: Acute effects in the tail-flick test (Experiment 2); type: in vivo
Experimental: as §1, §2
The N is given in brackets. Presented in FIG. 5 are mean±S.E.M. Area Under Curve (AUC) values calculated on the same data.

[3] = tested on: NAALADase; conditions: NAAG as substrate of NAALADase; cited from earlier work
[4] = tested on: Brown Norway rats (Rattus norvegicus); assay: Experimental rat glaucoma (unilateral IOP elevation), optic nerve fiber counting; type: in vivo; conditions: 10 mg/kg i.p. daily; for Fiber Number: glaucoma eye optic nerve; for Percent Difference (fiber number, glaucoma vs normal eye): positive value = fewer fibers in glaucoma eye
Experimental: (§3) All experiments complied with the Association for Research in Vision and Ophthalmology Statement for the Use of Animals in Ophthalmic and Vision Research. 82 male Brown Norway rats (Rattus norvegicus), each weighing approximately 250 gm, were treated using procedures approved by the Animal Care Committee of the Johns Hopkins University School of Medicine. The rats were housed with a 12 hour light/12 hour dark cycle and fed ad libitum.
Unilateral elevation of intraocular pressure (“IOP”) was produced in 56 rats by microinjection of hypertonic saline into episcleral veins, following procedures described in Morrison, J. et al., IOVS (March 1998) 39:526-531. Beginning on the day of IOP elevation, the rats were treated daily with intraperitoneal injections of either a vehicle (23 rats with 50 mM HEPES-buffered saline) or a NAALADase inhibitor (11 rats with 10 mg/kg of Compound A and 22 rats with 10 mg/kg of Compound B). 11 saline treated rats, 11 Compound A treated rats and 11 Compound B treated rats were sacrificed at 8 weeks, and the remaining rats at 12 weeks, after initial IOP elevation.
(§4) The rats were sacrificed by exsanguination under deep pentobarbital anesthesia. They were perfused through the heart with 2% paraformaldehyde/2% glutaraldehyde in 0.1 M phosphate buffer, pH 7.2, and the eyes with attached optic nerves were removed. Cross-sections of the optic nerves from both experimental (glaucoma or transection) and control eyes was removed 1.5 mm posterior to the globe, 1 mm in thickness, and post-fixed in 2% osmium tetroxide in buffer. These were processed into epoxy resin, sectioned at 1 micron and stained with toluidine blue.
The area of each optic nerve cross-section was measured by outlining its outer border at 10× magnification on an image analysis system (Universal Imaging Corp., Westchester, Pa.) with Synsys digital camera and Metamorph software. Three area measurements were taken and the mean value was determined. To measure the density and fiber diameter distributions, images were captured with a 100× phase contrast objective from 10 different areas of each nerve. These were edited to eliminate non-neural objects and the size of each axon internal to the myelin sheath (its minimum diameter) and the density of axons/square mm were calculated for each image and nerve. The mean density was multiplied by total nerve area to yield fiber number for each nerve. The total fiber number in glaucoma or transection nerves was compared to the normal, fellow eye of each rat to yield a percent loss value. The number of axons counted among the 10 images was approximately 20% of the 80-90,000 axons in normal rat nerves. The person measuring the number of axons was masked to the protocol conducted on the nerves. […]

[5] = tested on: BB/W rats; assay: Retinal disorder (diabetic retinopathy) in BB/W rats: BM thickness and E/P ratio after 6 months of daily treatment; type: in vivo, rat; conditions: for BM THICKNESS (nm) ± SD: retinal capillaries
Experimental: Four groups of rats received daily insulin injections to maintain their glucose levels at about 350 mg/dl. Starting at the onset of hyperglycemia, NAALADase inhibitor 2-(3-sulfanylpropyl)-pentanedioic acid (Compound B) was administered daily for 6 months to one group of BB/W rats at a dose of 10 mg/kg and to a second group of BB/W rats at a dose of 30 mg/kg. A third group of BB/W rats and a fourth group of non-diabetic rats received daily vehicle treatment (50 mM Hepes buffered saline).
After 6 months of treatment with Compound B or vehicle treatment, the rats were sacrificed and their eyes were removed. From each rat, one eye was processed for elastase digest while the other eye was processed for transmission electron microscopy (TEM) and basement membrane (BM) thickness.
Retinal digests were prepared using elastase on retinas as described in Layer, N., Invest Ophthalmol Vis Sci (1993) 34:2097. Eyes were removed from recently killed BB/W rats (n=30) and age-matched transgenic controls (n=12). The retinas (n=12) were fixed at room temperature by immersing the whole eye (slit at limbus) in 4% (w/v) paraformaldehyde in 50 mmol/L Na—K phosphate buffer with 8% sucrose. The fixed retinas were rinsed in deionized water and were incubated for 3 minutes in a 37° C. agitating water bath in 40 units/mL elastase in Na—K phosphate buffer with 150 mmol/L NaCl and 5 mmol/L ethylenediamine tetraacetic acid (EDTA), pH 6.5. The tissues were washed overnight in 100 mmol/L Tris-HCL (pH 8.5) and then transferred to deionized water for removal of the loosened vitreous and digested neural elements by gentle agitation using the sides of closed forceps and the sides and ends of very fine brushes. After all loose tissues were removed, the retinas were incubated once more in fresh enzyme for 3 minutes and then subjected to a second overnight wash at room temperature in Tns-HCl buffer. On the third day, the retinas were again transferred to deionized water for additional removal of digested neural elements. The vascular network that was completely free of nonvascular elements was mounted flat by flotation in Ca^2+ and Mg^2+ free Dulbecco's Phosphate-Buffered Saline (PBS) on siliconized slides (#S1308, Oncor, Gaithersburg, Md.). After air drying in a dust free environment, the mounts of the retinal microvasculature were stained using periodic acid Schiff reaction and hematoxylin counterstaining, as described in Luna, L., ed. Manual of Histologic Staining Methods of the Armed Forces Institute of Pathology (1968) McGraw-Hill, New York, N.Y. The preparations were then examined by light microscopy and photographed.
The stained and intact retinal whole mounts were coded and counted, as described in Cuthbertson, R., Invest Ophthalmol Vis Sci. (1986) 27:1659-1664).
Ten fields at ×100 magnification were counted for endothelial and pericyte cells using previously described morphologic criteria (see Kuwabara, T., Arch Ophthalmol. (1960) 64:904-911). In every sample, at least 200 cells were counted from the mid zone of the retina. Mean values for endothelial cell/pericyte (E/P) ratios were initially calculated in 3 retinas from each of the 4 groups of rats.
Each eye was fixed in 4% glutaraldehyde and dissected free of sclera and choroids, then trimmed and postfixed in 1% osmium tetroxide. After dehydration and embedding, thin sections were stained with uranyl acetate and lead citrate. Initially, BM thickness of retinal capillaries from 3 non-diabetic rats receiving vehicle, 3 diabetic animals receiving 10 mg/kg Compound B, and 3 diabetic rats receiving 30 mg/kg Compound B were compared with 3 diabetic rats receiving a vehicle. At least 10 capillaries per eye from the inner nuclear and plexiform layers were photographed at a magnification of 10,000×. Exact magnification was determined for each set of negatives with a 28,800 line/inch calibration grid. Negatives were enlarged 3×. […]

[6] = tested on: Brown Norway rats (Rattus norvegicus); assay: Optic nerve transection in rats, optic nerve fiber counting; type: in vivo; conditions: for Fiber Number / Percent Difference (fiber number, transected vs normal eye): 10 mg/kg i.p. daily
Experimental: as §3
The optic nerve was transected unilaterally in 26 rats under intraperitoneal pentobarbital anesthesia. The conjunctiva was opened with scissors and the optic nerve was exposed by traction on extraocular muscles. The transection was performed with microscissors 5 mm posterior to the globe, with specific attention to avoidance of injury to major ocular blood vessels. Immediately after transection, the retina was examined ophthalmoscopically to assure that the retinal arterial blood supply was not disrupted. The conjunctiva was closed with absorbable suture and the eye dressed with antibiotic ointment. Beginning on the day of transection, the rats were treated daily with intraperitoneal injections of either a vehicle (9 rats with 50 mM HEPES-buffered saline) or a NAALADase inhibitor (8 rats with 10 mg/kg of Compound A and 9 rats with 10 mg/kg of Compound B). 5 saline treated rats, 3 Compound A treated rats and 4 Compound B treated rats were sacrificed at 2 weeks, and the remaining rats at 4 weeks, after transection.
as §4
The area of each optic nerve cross-section was measured by outlining its outer border at 10× magnification on an image analysis system (Universal Imaging Corp., Westchester, Pa.) with Synsys digital camera and Metamorph software. Three area measurements were taken and the mean value was determined. To measure the density and fiber diameter distributions, images were captured with a 100× phase contrast objective from 10 different areas of each nerve. These were edited to eliminate non-neural objects and the size of each axon internal to the myelin sheath (its minimum diameter) and the density of axons/square mm were calculated for each image and nerve. The mean density was multiplied by total nerve area to yield fiber number for each nerve. The total fiber number in glaucoma or transection nerves was compared to the normal, fellow eye of each rat to yield a percent loss value. The number of axons counted among the 10 images was approximately 20% of the 80-90,000 axons in normal rat nerves. The person measuring the number of axons was masked to the protocol conducted on the nerves.
Percent Difference=mean percent difference in fiber number between glaucoma and normal eye in each rat (positive value indicates fewer fibers in the glaucoma eye).

[7] = diabetic BB/W rats, 10 mg/kg daily for 6 months, 10 mg/kg
[8] = diabetic BB/W rats, 10 mg/kg daily for 6 months, listed as NAALADASE INHIBITOR, 10 mg/kg
[9] = diabetic BB/W rats, 30 mg/kg daily for 6 months, 30 mg/kg
[10] = diabetic BB/W rats, 30 mg/kg daily for 6 months, listed as NAAALADASE INHIBITOR, 30 mg/kg
[11] = high dose 30 mg/kg, vs diabetic vehicle
[12] = low dose 10 mg/kg, vs diabetic vehicle
[13] = 2 weeks survival after transection
[14] = 4 weeks survival after transection

CN1CC[C@]23c4c5ccc(O)c4O[C@H]2[C@@H](O)C=C[C@H]3[C@H]1C5 [Morphine, morphine]
ED50 ([1]; 24 h, read-out: Test #1 ED50 (morphine antinociceptive potency)): 1.49 ± 0.26 mg/kg
ED50 ([1]; read-out: Test #2 ED50 (morphine antinociceptive potency)): 8.85 ± 2.22 mg/kg
ED50 ([2]; Mus musculus, sc, read-out: antinociceptive ED50 dose): 3 mg/kg

CC(=O)N[C@@H](CC(=O)O)C(=O)N[C@@H](CCC(=O)O)C(=O)O [NAAG, N-acetyl-aspartyl-glutamate] (Ac-Asp-Glu-OH)
Km [3]: 0.54 µM

O=C(O)CCC(CCCS)C(=O)O (stereo not drawn) [Compound B, 2-(3-sulfanylpropyl)pentanedioic acid]
Fiber Number ([4]; 8 week group): 80785 ± 2121**
Percent Difference (fiber number, glaucoma vs normal eye) ([4]; 8 week group): −0.82 ± 2.97%
Fiber Number ([4]; 12 week group): 90504 ± 1718
Percent Difference (fiber number, glaucoma vs normal eye) ([4]; 12 week group): −3.21 ± 2.86%
BM THICKNESS (nm) ± SD [5, 7]: 82.3±4.07 nm
BM THICKNESS (nm) ± SD [5, 8]: 82.3 ± 4.07 nm
E/P RATIO (endothelial cell/pericyte) [5, 7]: 2.5±0.5
E/P RATIO (endothelial cell/pericyte) [5, 8]: 2.5 ± 0.5
BM THICKNESS (nm) ± SD [5, 9]: 71.7±4.07 nm
BM THICKNESS (nm) ± SD [5, 10]: 71.7 ± 4.07 nm
E/P RATIO (endothelial cell/pericyte) [5, 9]: 2.0±0.9
E/P RATIO (endothelial cell/pericyte) [5, 10]: 2.0 ± 0.4
effect on body weight ([5]; diabetic BB/W rats, 6 months of treatment): no effect
reduction in BM thickness [5, 11]: 29.0%
reduction of endothelial cell to pericyte ratios [5, 11]: 33.0%
decrease in BM thickness [5, 12]: 18.5%
reduction of endothelial cell to pericyte ratios [5, 12]: 16.7%
remaining axons relative to saline-treated rats ([6]; 2 weeks after transection): twice
Fiber Number [6, 13]: 19,550 ± 11,383
Percent Difference (fiber number, transected vs normal eye) [6, 13]: 75.3 ± 14.8%
Fiber Number [6, 14]: 5,162 ± 5,017
Percent Difference (fiber number, transected vs normal eye) [6, 14]: 93.4 ± 6.2%

O=C(O)CCC(CP(=O)(O)O)C(=O)O (stereo not drawn) [Compound 2-PMPA, 2-(phosphonomethyl)pentanedioic acid]
effect on development of morphine tolerance ([1]; 50 or 100 mg/kg of 2-PMPA prior to each dose of morphine): attenuated the development of morphine tolerance
effect on antinociceptive effects of morphine ([2]; 100 mg/kg 2-PMPA i.p. 30 min before 1.5 or 3 mg/kg morphine s.c.): did not affect antinociceptive effects; also recorded: did not differ
tail-flick responses (AUC) compared to placebo+placebo treatment ([2]; 100 mg/kg of 2-PMPA i.p. + placebo): did not affect tail-flick responses; also recorded: did not differ from placebo+placebo treatment

CC12CC3CC(C)(C1)CC(N)(C3)C2 [Memantine, memantine]
effect on development of morphine tolerance ([1]; mouse, in vivo): attenuated the development of morphine tolerance; also recorded: produced an inhibition of morphine tolerance
